# According to patent US11214803B2, “Modulators of YAP1 expression” (Ionis Pharmaceuticals, Inc., priority 2019, dated 2022):
# Strand notation (5' to 3'): a small letter for the sugar, then the base; units joined by * are phosphorothioate-linked, units joined directly phosphodiester-linked; [ ] holds rarer units or linkages, { } end groups; capitals alone tell only the bases. k = constrained ethyl (cEt); [5mC] = 5-methylcytosine; d = 2'-deoxy (DNA)
# Tested on: Yap1 mRNA
# Test: Antisense inhibition of human Yap1 in A-431 cells by cEt gapmers, single dose (Example 4, RTS4814)
# Type: cell-based
# Conditions: Table 14; A-431 cells, 5,000 cells per well, free uptake, 2,000 nM, approximately 48 hours; RTS4814; normalized to RIBOGREEN; Yap1 mRNA relative to untreated control; * = targets amplicon region of primer probe set
# Protocol: Modified oligonucleotides were designed to target a Yap1 nucleic acid and were tested for their effect on Yap1 mRNA level in vitro. The modified oligonucleotides were tested in a series of experiments that had similar culture conditions. Cultured A-431 cells at a density of 5,000 cells per well were treated using free uptake with 2,000 nM of modified oligonucleotide. After a treatment period of approximately 48 hours, RNA was isolated from the cells and Yap1 mRNA levels were measured by quantitative real-time RTPCR. Human primer probe set RTS4814 was used to measure mRNA levels. Yap1 mRNA levels were normalized to total RNA content, as measured by RIBOGREEN®. Results are presented in the tables below as percent control of the amount of Yap1 mRNA relative to untreated control cells (% UTC). The modified oligonucleotides with percent control values marked with an asterisk (*) target the amplicon region of the primer probe set. Additional assays may be used to measure the potency and efficacy of the modified oligonucleotides targeting the amplicon region.
# The newly designed modified oligonucleotides in the Tables below were designed as 3-10-3 cEt gapmers. The gapmers are 16 nucleosides in length, wherein the central gap segment comprises of ten 2′-deoxynucleosides and is flanked by wing segments on the 5′ direction and the 3′ direction comprising three nucleosides each. Each nucleoside in the 5′ wing segment and each nucleoside in the 3′ wing segment has a cEt sugar modification. The internucleoside linkages throughout each gapmer are phosphorothioate (P═S) linkages. All cytosine residues throughout each gapmer are 5-methylcytosines.
# “Start site” indicates the 5′-most nucleoside to which the gapmer is targeted in the human gene sequence. “Stop site” indicates the 3′-most nucleoside to which the gapmer is targeted human gene sequence. […] Activity of the modified oligonucleotide may be defined in a different experiment.
row,Substance,YAP1 (% UTC)
1,1076160 (kT*kT*kA*dT*dA*d[5mC]*dT*dA*dG*dT*dA*d[5mC]*dG*kG*k[5mC]*kA; antisense) [Compound 1076160],20 % UTC
2,1074272 (antisense kT*kA*kT*dA*dG*dT*dA*dA*dA*dT*dT*dT*d[5mC]*kT*k[5mC]*k[5mC]) [Compound 1074272],16 % UTC
3,1075136 (antisense k[5mC]*kT*kA*dG*dA*dA*dT*dA*dT*dT*dA*dA*dA*kG*kG*kG) [Compound 1075136],87 % UTC

# Same assay, conditions: Table 15; A-431 cells, 5,000 cells per well, free uptake, 2,000 nM, approximately 48 hours; RTS4814; normalized to RIBOGREEN; Yap1 mRNA relative to untreated control; * = targets amplicon region of primer probe set
row,Substance,YAP1 (% UTC)
1,1075841 (kA*kT*kT*dT*dA*dG*dG*dT*dA*d[5mC]*dT*d[5mC]*dA*kG*kT*kA; antisense) [Compound 1075841],27 % UTC
2,1076449 (k[5mC]*k[5mC]*kT*dT*dA*dT*dA*dA*dT*dG*d[5mC]*dA*dA*kT*k[5mC]*k[5mC]; antisense) [Compound 1076449],2 % UTC
3,1074305 (antisense k[5mC]*kA*k[5mC]*d[5mC]*dT*dG*d[5mC]*d[5mC]*dG*dA*dA*dG*d[5mC]*kA*kG*kT) [Compound 1074305],64 % UTC
4,1075201 (antisense k[5mC]*kT*kT*dT*dA*dA*dA*dG*d[5mC]*d[5mC]*d[5mC]*dT*dA*kA*kT*kT) [Compound 1075201],114 % UTC

# Same assay, conditions: Table 16; A-431 cells, 5,000 cells per well, free uptake, 2,000 nM, approximately 48 hours; RTS4814; normalized to RIBOGREEN; Yap1 mRNA relative to untreated control cells
row,Substance,YAP1 (% UTC)
1,1075842 (kG*kT*kA*dT*dT*dT*dA*dG*dG*dT*dA*d[5mC]*dT*k[5mC]*kA*kG; antisense) [Compound 1075842],2 % UTC
2,1076354 (kG*kA*kT*dT*dA*dA*dA*d[5mC]*dA*dT*dT*d[5mC]*dG*kG*kA*kT; antisense) [Compound 1076354],13 % UTC
3,1074626 (antisense k[5mC]*kT*kG*dT*dT*dA*dT*dG*dA*dA*d[5mC]*d[5mC]*d[5mC]*kT*kT*kG) [Compound 1074626],5 % UTC
4,1076226 (k[5mC]*kA*kT*dA*dT*dA*dA*dA*d[5mC]*d[5mC]*dT*dT*dG*k[5mC]*kT*kA; antisense) [Compound 1076226],36 % UTC
5,1075298 (kA*kT*k[5mC]*dT*d[5mC]*dG*dG*dA*dA*dA*dT*dT*dT*kA*kA*kA; antisense) [Compound 1075298],128 % UTC
6,1074306 (antisense k[5mC]*k[5mC]*kT*d[5mC]*dA*d[5mC]*d[5mC]*dT*dG*d[5mC]*d[5mC]*dG*dA*kA*kG*k[5mC]) [Compound 1074306],107 % UTC

# Same assay, conditions: Table 17; A-431 cells, 5,000 cells per well, free uptake, 2,000 nM, approximately 48 hours; RTS4814; normalized to RIBOGREEN; Yap1 mRNA relative to untreated control cells
row,Substance,YAP1 (% UTC)
1,1074243 (antisense kT*k[5mC]*kT*dG*dA*d[5mC]*d[5mC]*dA*dG*dA*dA*dG*dA*kT*kG*kT) [Compound 1074243],60 % UTC
2,1076483 (antisense kA*k[5mC]*kG*dG*dG*dA*dA*dA*dT*d[5mC]*dA*dT*dA*kT*kA*kG) [Compound 1076483],5 % UTC

# Same assay, conditions: Yap1 mRNA remaining as percent of untreated control; 3-10-3 cEt gapmers; A-431 cells; Table 36
row,Substance,YAP1 (% UTC)
1,1075510 (kG*kA*kA*dT*dA*dA*d[5mC]*dA*d[5mC]*dA*dT*dA*dA*kT*k[5mC]*k[5mC]; antisense) [compound 1075510],83 % UTC
2,1075126 (k[5mC]*kT*kT*dA*dA*dA*dT*d[5mC]*dT*dT*dA*dG*d[5mC]*kA*kA*k[5mC]; antisense) [compound 1075126],20 % UTC
3,1074998 (antisense k[5mC]*kA*k[5mC]*dG*d[5mC]*dG*dA*d[5mC]*d[5mC]*dT*dA*d[5mC]*dT*kA*kA*kG) [compound 1074998],61 % UTC
4,1076374 (antisense kA*kT*kA*dA*d[5mC]*dG*dG*dA*dT*dA*dT*dA*d[5mC]*kA*kA*kT) [compound 1076374],15 % UTC

# Same assay, conditions: Yap1 mRNA remaining as percent of untreated control; 3-10-3 cEt gapmers; A-431 cells; Table 37
row,Substance,YAP1 (% UTC)
1,1074455 (k[5mC]*kA*kT*dT*dA*dT*dG*dT*dG*dA*d[5mC]*dT*dA*kA*kT*kG; antisense) [compound 1074455],67 % UTC
2,1076535 (kA*kT*kT*dT*dT*dT*dA*dG*d[5mC]*dT*d[5mC]*dG*d[5mC]*kA*kA*kT; antisense) [compound 1076535],28 % UTC
3,1075447 (antisense k[5mC]*kA*k[5mC]*dT*dA*dT*dA*dA*dA*dT*d[5mC]*d[5mC]*dT*k[5mC]*kA*kT) [compound 1075447],96 % UTC
